Assay results: BindingDB's records for doi:10.1021/acs.jmedchem.9b00068 (University of Michigan, 2019)

Legend:
[1] = molecular target: T1, Eukaryotic translation initiation factor 4E (Homo sapiens, UniProt P06730); experiment: Binding affinity to N-terminal 10His-tagged m7GDP-bound recombinant human eIF4E expressed in Escherichia coli BL21 (DE3) cells assessed as dissociation constant at 25 degreeC by surface plasmon resonance analysis
[2] = molecular target: T1, Eukaryotic translation initiation factor 4E; experiment: Binding affinity to N-terminal 10His-tagged m7GDP-bound recombinant human eIF4E expressed in Escherichia coli BL21 (DE3) cells assessed as dissociation constant at 25 degreeC in presence 225 to 1000 mM of NaCl by surface plasmon resonance analysis

T1 sequence (P06730 whole entry): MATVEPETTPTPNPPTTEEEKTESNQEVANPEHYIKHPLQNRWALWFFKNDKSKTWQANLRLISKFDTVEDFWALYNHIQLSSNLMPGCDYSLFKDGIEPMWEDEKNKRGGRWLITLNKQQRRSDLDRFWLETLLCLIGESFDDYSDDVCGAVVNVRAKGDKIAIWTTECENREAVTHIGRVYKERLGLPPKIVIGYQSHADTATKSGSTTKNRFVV

Molecule | Kd [1] [nM] | Kd [2] [nM]
Ac-KKRYSREQLLGL-NH2 | 123 | 
CC(=O)N[C@@H](CCCCN)C(=O)N[C@@H](CCCCN)C(=O)N[C@@H](CCCNC(=N)N)C(=O)N[C@@H](Cc1ccc(O)cc1)C(=O)N[C@@H](CC(=O)O)C(=O)N[C@@H](CCCNC(=N)N)C(=O)N[C@@H](CCC(=O)O)C(=O)N[C@@H](Cc1ccccc1)C(=O)N[C@@H](CC(C)C)C(=O)N[C@@H](CC(C)C)C(=O)NCC(=O)N[C@@H](Cc1ccccc1)C(=O)N[C@@H](CCC(N)=O)C(=O)N[C@@H](Cc1ccccc1)C(N)=O |  | 0.046
